Here are results for 6 compounds from ChEMBL document CHEMBL1201862, “PubChem BioAssay data set” (2004).

Test [1] can be described thus: Counterscreen for antagonists of the orexin 1 receptor (OX1R; HCRTR1): Fluorescence-based cell-based high throughput dose response assay to identify antagonists of the parental CHO cell line. [Related pubchem assays (depositor defined):AID434989, AID435008, AID463079, AID485270, AID492963, AID492964, AID492965, AID493232, AID504699, AID504701]. It is filed as functional.

A short description of test [2]: NIH-3T3 fibroblast cytotoxicity, dose response, cytotoxicity control, cell-based, fluorescence, Alamar Blue, secondary assay (AID 2327).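 Also: NIH-3T3 mouse fibroblasts cultured with fluconazole at 8 µg/mL.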 It is filed as functional.
Test [3] in a line: microbe, parasite or virus in culture. It is filed as functional. Conditions: Mycobacterium tuberculosis.
Test [4] is described as follows: C. albicans growth with fluconazole, confirmation, fluorescence, retest (AID 2467). It is filed as functional, cell-based.
For another test, the system named is CHO-K1. The experiment in a line: Counterscreen for antagonists of the orexin 1 receptor (OX1R; HCRTR1): Homogeneous time resolved fluorescence (HTRF)-based cell-based dose response assay to identify antagonists of the parental CHO-K1 cell line. [Related pubchem assays (depositor defined):AID434989, AID435008, AID463079, AID485270, AID492963, AID492964, AID492965, AID493232, AID504699, AID504701]. Conditions: Cricetulus griseus. It is filed as functional. A general note: A counterscreen serves to expose hits that act by an unwanted route or on another target.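 Also: potency for inhibition of ATP-stimulated IP1 production as antagonists.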

For test [5], the target named is T1, Orexin/Hypocretin receptor type 1 (Homo sapiens, UniProt O43613).
T1 sequence (O43613 whole entry): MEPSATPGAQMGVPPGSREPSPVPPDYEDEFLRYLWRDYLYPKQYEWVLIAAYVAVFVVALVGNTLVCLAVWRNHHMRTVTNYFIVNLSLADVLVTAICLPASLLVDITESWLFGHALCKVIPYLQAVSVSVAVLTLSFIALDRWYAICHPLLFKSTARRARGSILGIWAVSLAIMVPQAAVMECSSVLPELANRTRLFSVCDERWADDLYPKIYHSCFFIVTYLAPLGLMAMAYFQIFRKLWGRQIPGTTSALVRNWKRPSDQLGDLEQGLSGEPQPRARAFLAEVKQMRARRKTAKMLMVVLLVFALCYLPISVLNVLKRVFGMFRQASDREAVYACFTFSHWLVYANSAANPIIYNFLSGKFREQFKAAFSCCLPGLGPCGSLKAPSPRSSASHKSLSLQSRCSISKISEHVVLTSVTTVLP
Briefly: Fluorescence-based cell-based high throughput dose response assay for antagonists of the orexin 1 receptor (OX1R; HCRTR1). [Related pubchem assays (depositor defined):AID434989, AID435008, AID463079, AID485270, AID492963, AID492964, AID492965, AID493232, AID504717, AID504718]. It is filed as functional.

In test [6] the target is T2, Orexin receptor type 2 (Homo sapiens, UniProt O43614).
T2 sequence (O43614 whole entry): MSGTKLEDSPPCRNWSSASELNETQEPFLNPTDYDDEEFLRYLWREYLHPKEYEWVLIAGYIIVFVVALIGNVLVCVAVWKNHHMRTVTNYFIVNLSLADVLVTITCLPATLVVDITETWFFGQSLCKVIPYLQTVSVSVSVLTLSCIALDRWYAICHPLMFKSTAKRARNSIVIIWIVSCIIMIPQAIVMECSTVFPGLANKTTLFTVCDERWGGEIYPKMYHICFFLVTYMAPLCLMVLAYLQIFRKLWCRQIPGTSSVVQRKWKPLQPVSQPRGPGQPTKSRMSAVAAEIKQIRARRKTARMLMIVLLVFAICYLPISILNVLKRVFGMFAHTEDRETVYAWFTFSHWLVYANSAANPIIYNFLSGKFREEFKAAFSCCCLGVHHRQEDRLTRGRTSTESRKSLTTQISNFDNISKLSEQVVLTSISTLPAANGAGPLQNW
Briefly: Counterscreen assay for antagonists of the orexin 1 receptor (OX1R; HCRTR1): Homogeneous Time Resolved Fluorescence (HTRF)-based cell-based dose response assay for antagonists of the orexin 2 receptor (OX2R; HCRTR2), run by assay provider. It is filed as functional.

For test [7], the target named is T3, Probable nicotinate-nucleotide adenylyltransferase (Staphylococcus aureus (strain N315), UniProt P65502). It is filed as functional, Staphylococcus aureus subsp. aureus N315.
T3 sequence (P65502 whole entry): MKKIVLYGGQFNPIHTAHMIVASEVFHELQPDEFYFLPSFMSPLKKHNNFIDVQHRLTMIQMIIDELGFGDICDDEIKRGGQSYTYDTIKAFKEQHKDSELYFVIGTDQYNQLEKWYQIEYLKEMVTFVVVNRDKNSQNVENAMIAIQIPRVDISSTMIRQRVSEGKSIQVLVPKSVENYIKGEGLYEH
Test [8] concerns the target T3, Probable nicotinate-nucleotide adenylyltransferase. It is filed as functional, Staphylococcus aureus subsp. aureus N315. The following applies: read-out: IC50_Mean.
The target of test [9] is T1, Orexin/Hypocretin receptor type 1. The experiment in a line: Homogeneous Time Resolved Fluorescence (HTRF)-based cell-based high throughput dose response assay for antagonists of the orexin 1 receptor (OX1R; HCRTR1). [Related pubchem assays (depositor defined):AID434989, AID435008, AID463079, AID485270, AID492963, AID492964, AID492965, AID493232, AID504717, AID504718]. It is filed as functional.

Test [10] concerns the target T2, Orexin receptor type 2. The experiment in a line: Counterscreen assay for antagonists of the orexin 1 receptor (OX1R; HCRTR1): Fluorescence-based cell-based dose response assay for antagonists of the orexin 2 receptor (OX2R; HCRTR2), run by assay provider. It is filed as functional.
Test [11] is described as follows: THP-1 cell cytotoxicity, dose response, cytotoxicity control for Vif-APOBEC3G degradation inhibitor project, THP-1 cells (AID 1117359). It is filed as functional. Conditions: Human immunodeficiency virus 1, THP-1.
For the next test, the system named is Vero. The experiment in a line: Vero cell cytotoxicity, cytotoxicity control for flavivirus capping enzyme inhibitors (AID 588742). It is filed as functional. Conditions: Chlorocebus sabaeus.
The target in a further test is Mu-type opioid receptor (Homo sapiens, UniProt P35372). Briefly: Counterscreen for agonists of heterodimerization of the mu 1 (OPRM1) and delta 1 (OPRD1) opioid receptors: Luminescence-based cell-based high throughput dose response assay to identify agonists of OPRM1 homodimerization. It is filed as functional.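 Also: U2OS cells expressing OPRM1 and beta-arrestin as split beta-galactosidase partners.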
Mu-type opioid receptor, sequence (P35372 whole entry): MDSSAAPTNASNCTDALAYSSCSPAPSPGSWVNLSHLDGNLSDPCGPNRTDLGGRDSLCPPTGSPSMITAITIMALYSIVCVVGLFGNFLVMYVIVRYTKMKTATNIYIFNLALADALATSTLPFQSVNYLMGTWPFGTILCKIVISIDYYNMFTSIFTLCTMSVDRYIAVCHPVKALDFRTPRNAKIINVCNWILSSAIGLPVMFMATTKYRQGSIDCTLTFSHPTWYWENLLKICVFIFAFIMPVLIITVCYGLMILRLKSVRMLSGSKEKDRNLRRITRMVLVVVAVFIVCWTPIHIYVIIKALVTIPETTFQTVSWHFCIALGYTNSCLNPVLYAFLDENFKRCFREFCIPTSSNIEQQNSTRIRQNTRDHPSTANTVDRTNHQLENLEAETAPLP
For test [12], the target named is Delta-type opioid receptor (Homo sapiens, UniProt P41143). The experiment in a line: Counterscreen for agonists of heterodimerization of the mu 1 (OPRM1) and delta 1 (OPRD1) opioid receptors: Luminescence-based cell-based high throughput dose response assay to identify agonists of OPRD1 homodimerization. [Related pubchem assays (depositor defined):AID504326, AID504355, AID504692, AID504904, AID504905]. It is filed as functional.
Delta-type opioid receptor, sequence (P41143 whole entry): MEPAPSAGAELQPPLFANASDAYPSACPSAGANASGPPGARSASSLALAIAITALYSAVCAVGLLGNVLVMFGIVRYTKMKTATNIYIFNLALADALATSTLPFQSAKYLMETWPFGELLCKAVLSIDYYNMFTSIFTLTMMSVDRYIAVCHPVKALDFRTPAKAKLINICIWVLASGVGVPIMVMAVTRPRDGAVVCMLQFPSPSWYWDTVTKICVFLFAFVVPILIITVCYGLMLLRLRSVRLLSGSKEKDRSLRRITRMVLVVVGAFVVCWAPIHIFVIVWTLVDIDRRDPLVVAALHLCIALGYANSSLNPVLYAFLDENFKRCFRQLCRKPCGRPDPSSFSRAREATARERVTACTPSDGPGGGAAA

The target of test [13] is 5-hydroxytryptamine receptor 5A (Homo sapiens, UniProt P47898). The experiment in a line: Counterscreen for agonists of OPRM1-OPRD1 heterodimerization: luminescence-based cell-based high throughput dose response assay to identify agonists of 5-hydroxytryptamine (serotonin) 5A receptor (HTR5A). [Related pubchem assays (depositor defined):AID504326, AID504355, AID504692, AID504904, AID504905]. It is filed as functional.
5-hydroxytryptamine receptor 5A, sequence (P47898 whole entry): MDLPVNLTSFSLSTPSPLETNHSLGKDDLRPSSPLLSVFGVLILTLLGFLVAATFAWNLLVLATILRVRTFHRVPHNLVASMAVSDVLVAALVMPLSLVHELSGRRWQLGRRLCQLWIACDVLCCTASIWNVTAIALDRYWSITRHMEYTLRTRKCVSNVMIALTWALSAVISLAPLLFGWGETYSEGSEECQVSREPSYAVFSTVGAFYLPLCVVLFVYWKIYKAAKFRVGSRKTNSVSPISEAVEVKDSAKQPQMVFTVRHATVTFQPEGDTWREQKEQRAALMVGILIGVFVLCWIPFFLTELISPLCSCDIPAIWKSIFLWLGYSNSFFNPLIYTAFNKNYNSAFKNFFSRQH

Test [14] has as its target T4, Short transient receptor potential channel 4 (Mus musculus, UniProt Q9QUQ5).
T4 sequence (Q9QUQ5 whole entry): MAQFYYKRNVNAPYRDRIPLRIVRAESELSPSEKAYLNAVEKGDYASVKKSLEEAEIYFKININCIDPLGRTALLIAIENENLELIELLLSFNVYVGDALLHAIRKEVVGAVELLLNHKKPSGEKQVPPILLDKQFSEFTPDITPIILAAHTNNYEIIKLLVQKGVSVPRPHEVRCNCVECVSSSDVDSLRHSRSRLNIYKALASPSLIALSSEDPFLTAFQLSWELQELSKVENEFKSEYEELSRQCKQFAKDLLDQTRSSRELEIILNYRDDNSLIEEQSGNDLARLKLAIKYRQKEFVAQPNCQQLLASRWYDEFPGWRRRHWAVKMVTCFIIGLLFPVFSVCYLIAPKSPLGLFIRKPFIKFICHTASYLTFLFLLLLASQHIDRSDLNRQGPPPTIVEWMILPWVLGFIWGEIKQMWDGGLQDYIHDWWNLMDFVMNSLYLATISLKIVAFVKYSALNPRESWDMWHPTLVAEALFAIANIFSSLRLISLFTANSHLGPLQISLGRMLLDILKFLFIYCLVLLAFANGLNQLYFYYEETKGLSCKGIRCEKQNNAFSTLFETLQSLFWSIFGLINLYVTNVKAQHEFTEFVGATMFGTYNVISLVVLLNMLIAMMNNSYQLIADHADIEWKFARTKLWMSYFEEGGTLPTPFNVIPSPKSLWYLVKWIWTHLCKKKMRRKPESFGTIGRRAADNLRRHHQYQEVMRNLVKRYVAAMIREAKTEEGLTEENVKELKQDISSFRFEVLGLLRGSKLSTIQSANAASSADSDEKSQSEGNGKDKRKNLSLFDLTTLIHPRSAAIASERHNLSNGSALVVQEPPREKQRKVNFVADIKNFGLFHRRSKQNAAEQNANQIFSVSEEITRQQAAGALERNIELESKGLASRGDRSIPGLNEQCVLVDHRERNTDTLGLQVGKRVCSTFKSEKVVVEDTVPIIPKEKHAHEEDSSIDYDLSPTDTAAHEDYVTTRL
The experiment in a line: mouse TRPC4 channel activators, dose response, cell-based, HEK293 TRPC4/mu-opioid, Fluo-4 calcium (AID 434937). It is filed as functional.

Another test has as its system INS1. Briefly: beta cell apoptosis inhibitors, cytokine rescue, dose response, luminescence, retest (AID 449756).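 Also: cell death triggered by IL-1 beta plus TNF-alpha plus IFN-gamma mixture; protective hits raise ATP signal compared with cytokine alone wells.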 It is filed as functional, cell-based. The following applies: Rattus norvegicus.
For test [15], the target named is T5, Hepatocyte nuclear factor 4-alpha (Homo sapiens, UniProt P41235).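 Also: biochemical luminescence-based dose-response counterscreen measuring inhibition of HNF4 dimerization, run alongside a screen for blockers of ABHD5–perilipin-5 interaction; split luciferase complementation of HNF4 fusion proteins in cell lysate measuring dimerization.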
T5 sequence (P41235 whole entry): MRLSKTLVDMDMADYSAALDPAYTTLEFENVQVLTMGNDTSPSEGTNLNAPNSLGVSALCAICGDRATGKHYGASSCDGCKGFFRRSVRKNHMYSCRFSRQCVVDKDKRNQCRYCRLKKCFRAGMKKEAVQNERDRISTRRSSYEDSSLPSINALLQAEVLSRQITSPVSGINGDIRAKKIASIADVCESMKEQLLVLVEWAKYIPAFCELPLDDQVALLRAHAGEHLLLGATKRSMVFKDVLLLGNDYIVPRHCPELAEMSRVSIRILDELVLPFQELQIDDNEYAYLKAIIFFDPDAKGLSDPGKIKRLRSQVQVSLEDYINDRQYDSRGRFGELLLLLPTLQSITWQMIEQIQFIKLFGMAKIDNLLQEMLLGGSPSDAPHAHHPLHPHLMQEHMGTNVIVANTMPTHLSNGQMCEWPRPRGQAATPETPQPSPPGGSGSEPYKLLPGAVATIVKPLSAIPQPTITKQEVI
It is filed as functional, cell-based.

Test [16] concerns the target T4, Short transient receptor potential channel 4. The experiment in a line: mouse TRPC4 channel inhibitors, dose response, cell-based, HEK293 TRPC4/mu-opioid, Fluo-4 calcium (AID 434942).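 Also: potency of inhibitors blocking the TRPC4 calcium response.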 It is filed as functional.
Another test addresses Large T antigen (Simian virus 40, UniProt P03070). It is filed as functional, Betapolyomavirus macacae.
The next test has as its target Genome polyprotein (dengue virus type 2, UniProt P29990). The experiment in a line: Dengue-2 NS5 methyltransferase inhibitors, primary screen, biochemical, confirmation dose response (AID 588689). It is filed as functional.
The nature of test [17]: inhibitors of PGC1a acetylation in cells, dose response, cell-based, cherry-picked samples (AID 720514).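 Also: potency may reflect raised or lowered acetylation signal.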 It is filed as functional.
Test [18] can be described thus: cytotoxicity toward NIH3T3 fibroblasts, dose response, counter-screen, cell-based, ATP luminescence, mouse fibroblasts (AID 2010).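 Also: cells exposed to compound for about 90 hours before reading.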 It is filed as functional.
Test [19] is described as follows: inhibitors of intracellular T. cruzi replication, confirmation, NIH3T3 host cells, beta-gal luminescence (AID 2044).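 Also: intracellular parasites grown in NIH/3T3 mouse fibroblasts as host cells; luminescent beta-galactosidase reporter signal from transgenic T. cruzi replicating inside host cells; inhibitors lower the luminescence signal.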 It is filed as functional, cell-based.

Each structure is given as a SMILES string. The source made the active and inactive calls.

In general, EC50 refers to the midpoint of the concentration-response curve. As a reminder, the AC50 is the midpoint of the concentration-response curve, whichever way the signal moves.
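For IC50 Mean in this document: confirmatory dose-response retesting of NadD inhibitor hits first found in an ultra-high-throughput screen.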

Large T antigen, sequence (P03070 whole entry): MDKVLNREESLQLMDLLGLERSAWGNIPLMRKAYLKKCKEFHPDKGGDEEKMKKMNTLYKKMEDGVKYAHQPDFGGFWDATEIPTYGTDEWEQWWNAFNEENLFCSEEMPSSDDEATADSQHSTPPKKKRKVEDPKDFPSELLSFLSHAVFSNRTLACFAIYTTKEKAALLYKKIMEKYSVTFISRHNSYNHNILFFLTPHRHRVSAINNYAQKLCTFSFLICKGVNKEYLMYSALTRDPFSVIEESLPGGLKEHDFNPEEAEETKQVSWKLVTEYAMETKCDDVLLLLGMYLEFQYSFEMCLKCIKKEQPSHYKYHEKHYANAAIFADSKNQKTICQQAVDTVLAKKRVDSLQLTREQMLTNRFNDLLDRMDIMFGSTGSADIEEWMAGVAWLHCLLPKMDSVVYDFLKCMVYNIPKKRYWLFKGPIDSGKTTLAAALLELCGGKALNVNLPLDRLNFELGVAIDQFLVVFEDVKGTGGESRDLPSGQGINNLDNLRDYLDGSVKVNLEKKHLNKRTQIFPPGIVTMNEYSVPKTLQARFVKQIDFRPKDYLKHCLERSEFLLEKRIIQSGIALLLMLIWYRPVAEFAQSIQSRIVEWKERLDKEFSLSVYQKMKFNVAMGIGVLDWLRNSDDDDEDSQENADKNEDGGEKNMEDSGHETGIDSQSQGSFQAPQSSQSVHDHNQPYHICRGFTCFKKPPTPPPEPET
Genome polyprotein, sequence (P29990 2492-3391 limits assumed): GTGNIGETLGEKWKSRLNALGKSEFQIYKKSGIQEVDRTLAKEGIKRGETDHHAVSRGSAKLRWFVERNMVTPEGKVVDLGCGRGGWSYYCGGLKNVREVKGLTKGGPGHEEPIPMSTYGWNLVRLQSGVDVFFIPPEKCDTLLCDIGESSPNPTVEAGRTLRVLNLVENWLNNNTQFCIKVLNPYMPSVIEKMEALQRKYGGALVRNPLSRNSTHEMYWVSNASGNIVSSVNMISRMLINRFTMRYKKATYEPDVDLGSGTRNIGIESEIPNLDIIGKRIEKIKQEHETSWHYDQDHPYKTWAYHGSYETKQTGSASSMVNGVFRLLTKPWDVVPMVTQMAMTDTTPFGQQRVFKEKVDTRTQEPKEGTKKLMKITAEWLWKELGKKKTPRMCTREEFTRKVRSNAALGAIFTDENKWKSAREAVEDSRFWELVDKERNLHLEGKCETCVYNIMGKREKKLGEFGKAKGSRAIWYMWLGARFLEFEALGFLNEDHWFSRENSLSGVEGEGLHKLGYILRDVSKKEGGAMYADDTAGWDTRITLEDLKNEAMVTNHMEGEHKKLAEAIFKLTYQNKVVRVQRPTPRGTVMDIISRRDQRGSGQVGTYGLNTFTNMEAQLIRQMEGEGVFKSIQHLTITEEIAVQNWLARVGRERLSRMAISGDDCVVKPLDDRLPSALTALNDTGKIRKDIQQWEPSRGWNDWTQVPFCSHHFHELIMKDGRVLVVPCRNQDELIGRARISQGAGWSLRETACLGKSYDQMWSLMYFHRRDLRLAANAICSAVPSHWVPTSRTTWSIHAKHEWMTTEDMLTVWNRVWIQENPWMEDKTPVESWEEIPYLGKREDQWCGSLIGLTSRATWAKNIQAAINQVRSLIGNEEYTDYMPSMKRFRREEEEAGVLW

As to `O=C(Nc1nnc(-c2ccccc2)o1)c1cc(-c2cccs2)nc2ccccc12`, the IC50 in [1] was 43.7 µM (inactive); in the test with CHO-K1, > 66.2 µM (inactive); in [5], 30.4 µM (inactive); on Orexin receptor type 2 [6], > 50 µM (inactive); in test [7], 6.82 µM (active); in test [8] it was 19.5 µM (active). Also, the results for the IC50 (in test [9]; at Orexin receptor type 2 [10]) were 6.15 µM (active) and 8.5 µM (active), respectively. The EC50 in test [2] is > 150 µM (inconclusive); in [4] it was 1.15 µM (active). The CC50 in test [3] is 38.7 µM (active).

On to `Oc1ccc(NCc2cccc(OCc3ccccc3)c2)cc1`, for which the CC50 in test [11] is 36.2 µM (active); in the test with Vero, > 40 µM (active).

On to `CCCC(=O)NC(C)C(c1cccs1)N1CCN(c2ccccc2)CC1` (stereo unspecified), for which the EC50 was > 92.5 µM (inactive) on Mu-type opioid receptor, > 92.5 µM (inactive) in [12], > 92.5 µM (inactive) in [13] and 0.267 µM (active) in [14].

In the case of `CCOC(=O)c1c(NC(=O)/C=C/C(=O)O)sc(C)c1-c1ccc(C(C)(C)C)cc1`, the results for the AC50 (with INS1; in test [17]) were 4.33 µM (active) and 32.8 µM (active), respectively. The IC50 in test [15] was 17.4 µM (inactive); at Large T antigen, 20.8 µM (active); at Genome polyprotein, 25.6 µM (active). Further, the concentration for a half-maximal effect (EC50) in test [16] is 5.31 µM (active); in test [18] it was > 60 µM (not active); in test [19], 3.42 µM (active). The CC50 in the test on Vero was 10.6 µM (active).

As for `CCOC(=O)c1ccc2[nH]c(C)c(C)c2c1`, the IC50 in test [1] is > 49.8 µM (inactive); in the test on CHO-K1 it was > 66.3 µM (inactive); in test [5] it was 20.2 µM (inactive); at Orexin receptor type 2 [6] it was 13.5 µM (inactive); in [9], 5.45 µM (active); on Orexin receptor type 2 [10] it was 18.8 µM (inactive).

Turning to `COc1ccc(C(CNC(=O)C(C)c2ccc3cc(OC)ccc3c2)N(C)C)cc1` (stereo unspecified), the EC50 on Mu-type opioid receptor is > 92.4 µM (inactive); in test [12], > 92.4 µM (inactive); in test [13] it was > 92.4 µM (inactive); in [14], 0.473 µM (active).
